Inconclusive results and toxic doses are left out. No stated cut-off is given here; in the data, active means T/C of 150% or more; inactive means T/C below 125%.
Test system: L1210 leukemia ip in BDF1 mice, survival T/C
Assay: NCI In Vivo Anticancer Drug Screen. Data for tumor model L1210 Leukemia (intraperitoneal) in B6D2F1 (BDF1) mice
Conditions: endpoint: mean survival time, higher = longer survival
Summary of the method: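 Read-out is survival time, reported as the treated-group measurement over the vehicle-control measurement.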

[1] = dose: 6.25 mg/kg/injection, schedule: Q01DX009 (ip), vehicle: saline with Tween-80
[2] = dose: 12.5 mg/kg/injection, schedule: Q01DX009 (ip), vehicle: saline with Tween-80
[3] = dose: 25.0 mg/kg/injection, schedule: Q04DX003 (ip), vehicle: saline with Tween-80
[4] = dose: 100.0 mg/kg/injection, schedule: Q04DX002 (ip), vehicle: saline with Tween-80
[5] = dose: 200.0 mg/kg/injection, schedule: Q04DX002 (ip), vehicle: saline with Tween-80
[6] = dose: 100.0 mg/kg/injection, schedule: Q04DX003 (ip), vehicle: saline with Tween-80
[7] = dose: 100.0 mg/kg/injection, schedule: Q01DX009 (ip), vehicle: saline
[8] = dose: 200.0 mg/kg/injection, schedule: Q01DX009 (ip), vehicle: saline
[9] = dose: 75.0 mg/kg/injection, schedule: Q01DX001 (ip), vehicle: saline
[10] = dose: 100.0 mg/kg/injection, schedule: Q01DX009 (ip), vehicle: saline with Tween-80
[11] = dose: 200.0 mg/kg/injection, schedule: Q01DX009 (ip), vehicle: saline with Tween-80
[12] = dose: 400.0 mg/kg/injection, schedule: Q01DX009 (ip), vehicle: saline with Tween-80
[13] = dose: 400.0 mg/kg/injection, schedule: Q04DX002 (ip), vehicle: saline with Tween-80
[14] = dose: 100.0 mg/kg/injection, schedule: Q04DX003 (ip), vehicle: Klucel (hydroxypropylcellulose) (HPC)
[15] = dose: 200.0 mg/kg/injection, schedule: Q04DX003 (ip), vehicle: Klucel (hydroxypropylcellulose) (HPC)
[16] = dose: 400.0 mg/kg/injection, schedule: Q04DX003 (ip), vehicle: Klucel (hydroxypropylcellulose) (HPC)

Measured: T/C

O=C1OC(=O)C2C3C=CC(CC12)O3 (stereo not given)
inactive: [1] 97 % of control | dose: 6.25 mg/kg/injection, schedule: Q04DX003 (ip), vehicle: saline with Tween-80 96 % of control | [2] 97 % of control | dose: 12.5 mg/kg/injection, schedule: Q04DX003 (ip), vehicle: saline with Tween-80 91 % of control | [3] 94 % of control

CN1CCC=C(C(C)(C)O)C1
inactive: dose: 100.0 mg/kg/injection, schedule: Q04DX003 (ip), vehicle: saline 101 % of control | dose: 200.0 mg/kg/injection, schedule: Q04DX003 (ip), vehicle: saline 100 % of control | dose: 400.0 mg/kg/injection, schedule: Q04DX003 (ip), vehicle: saline 106 % of control

O=C(Nc1cccc(Cl)c1)Oc1ccc(S(=O)(=O)F)cc1Cl
inactive: [4] 94 % of control | [5] 91 % of control

CC(=O)Oc1cc(OC(C)=O)c(Oc2cc(OC(C)=O)c(OC(C)=O)c(OC(C)=O)c2)c(OC(C)=O)c1
inactive: [6] 97 % of control | dose: 200.0 mg/kg/injection, schedule: Q04DX003 (ip), vehicle: saline with Tween-80 95 % of control | dose: 400.0 mg/kg/injection, schedule: Q04DX003 (ip), vehicle: saline with Tween-80 90 % of control

[O]=[Sn]1[O][Bi]([O][Sn](=[O])[O][Bi]2[O][Sn](=[O])[O]2)[O]1
inactive: [7] 94 % of control | [8] 94 % of control | dose: 400.0 mg/kg/injection, schedule: Q01DX009 (ip), vehicle: saline 92 % of control

CCOC(=O)CCCN1CCC=C(C#N)C1
inactive: [9] 102 % of control | dose: 300.0 mg/kg/injection, schedule: Q01DX001 (ip), vehicle: saline 107 % of control

N#CC(CC(=O)c1ccccc1)c1ccccc1 (stereo not given)
inactive: [10] 97 % of control | [11] 100 % of control | [12] 107 % of control

CCOC(=O)C1(C(C)C)OC2(O)C3CCCN3CC(C(C)C)N2C1=O (stereo not given)
inactive: [1] 100 % of control | [2] 113 % of control | dose: 25.0 mg/kg/injection, schedule: Q01DX009 (ip), vehicle: saline with Tween-80 100 % of control | [3] 94 % of control | dose: 50.0 mg/kg/injection, schedule: Q01DX009 (ip), vehicle: saline with Tween-80 103 % of control | dose: 50.0 mg/kg/injection, schedule: Q04DX003 (ip), vehicle: saline with Tween-80 103 % of control | [10] 96 % of control | [6] 94 % of control

CCOc1ccc(OC/C=C(\C)CC/C=C(/C)CC)cc1
inactive: [4] 96 % of control | [5] 99 % of control | [13] 108 % of control

Cc1cccc(Cl)c1NC(=O)Nc1cccc(O)c1
inactive: [10] 100 % of control | [11] 100 % of control | [12] 97 % of control

Cc1ccc(S(=O)(=O)CC(=O)c2ccccc2)cc1
inactive: [14] 100 % of control | [15] 107 % of control | [16] 102 % of control

CC(C(=O)c1ccc(Cl)cc1)C(O)(C(F)(F)F)C(F)(F)F (stereo not given)
inactive: dose: 50.0 mg/kg/injection, schedule: Q01DX009 (ip), vehicle: Klucel (hydroxypropylcellulose) (HPC) 104 % of control | dose: 100.0 mg/kg/injection, schedule: Q01DX009 (ip), vehicle: Klucel (hydroxypropylcellulose) (HPC) 104 % of control | [14] 103 % of control | dose: 200.0 mg/kg/injection, schedule: Q01DX009 (ip), vehicle: Klucel (hydroxypropylcellulose) (HPC) 108 % of control | [15] 101 % of control | [16] 103 % of control

N#CCN(CC#N)CCCN(CC#N)CCCN(CC#N)CC#N
inactive: dose: 12.5 mg/kg/injection, schedule: Q01DX001 (ip), vehicle: saline with Tween-80 97 % of control | dose: 25.0 mg/kg/injection, schedule: Q01DX001 (ip), vehicle: saline with Tween-80 108 % of control | dose: 50.0 mg/kg/injection, schedule: Q01DX001 (ip), vehicle: saline with Tween-80 102 % of control

CCCCCCC(C)(O)CCCCOC(C)OCC (stereo not given)
inactive: dose: 50.0 mg/kg/injection, schedule: Q04DX002 (ip), vehicle: saline with Tween-80 95 % of control | [4] 95 % of control | [5] 88 % of control | [13] 95 % of control

Nc1nc(N)c(-c2ccc(Cl)c(Cl)c2)c(COc2ccc(NC(=O)c3ccc(S(=O)(=O)F)cc3)cc2Cl)n1
inactive: dose: 50.0 mg/kg/injection, schedule: Q01DX001 (ip), vehicle: Klucel (hydroxypropylcellulose) (HPC) 97 % of control | dose: 100.0 mg/kg/injection, schedule: Q01DX001 (ip), vehicle: Klucel (hydroxypropylcellulose) (HPC) 97 % of control

CCCCCCCCC1CCCCC1
inactive: dose: 50.0 mg/kg/injection, schedule: Q04DX002 (sc), vehicle: olive oil, sesame oil, peanut oil 105 % of control | dose: 100.0 mg/kg/injection, schedule: Q04DX002 (sc), vehicle: olive oil, sesame oil, peanut oil 109 % of control | dose: 200.0 mg/kg/injection, schedule: Q04DX002 (sc), vehicle: olive oil, sesame oil, peanut oil 109 % of control

CC1(C)N=C(N)N=C(N)N1c1cccc(CCCCCc2ccccc2)c1
inactive: dose: 25.0 mg/kg/injection, schedule: Q01DX001 (ip), vehicle: saline 94 % of control

N/C(=N\O)c1cccnc1
inactive: dose: 25.0 mg/kg/injection, schedule: Q01DX009 (ip), vehicle: water 98 % of control | dose: 50.0 mg/kg/injection, schedule: Q01DX009 (ip), vehicle: water 106 % of control | [10] 100 % of control | dose: 100.0 mg/kg/injection, schedule: Q01DX009 (ip), vehicle: water 101 % of control | dose: 100.0 mg/kg/injection, schedule: Q04DX003 (ip), vehicle: water 100 % of control | [11] 96 % of control | dose: 200.0 mg/kg/injection, schedule: Q01DX009 (ip), vehicle: water 97 % of control | dose: 200.0 mg/kg/injection, schedule: Q04DX003 (ip), vehicle: water 107 % of control

CC1=CC23C(COC(=O)C24CO4)C(C(=O)O)=CC3C1C (stereo not given) (tested in a mixture with another compound)
inactive: dose: 1.2 mg/kg/injection, schedule: Q01DX001 (ip), vehicle: saline 101 % of control | dose: 2.5 mg/kg/injection, schedule: Q01DX001 (ip), vehicle: saline 100 % of control

NC(N)=NC(N)=NC1CCCCC1
inactive: dose: 50.0 mg/kg/injection, schedule: Q01DX009 (ip), vehicle: saline 89 % of control | [7] 102 % of control | [8] 108 % of control

C/C=C/C(=O)Nc1ccccc1
inactive: dose: 50.0 mg/kg/injection, schedule: Q01DX001 (ip), vehicle: carboxymethylcellulose (CMC) 97 % of control | dose: 100.0 mg/kg/injection, schedule: Q01DX001 (ip), vehicle: carboxymethylcellulose (CMC) 100 % of control | dose: 200.0 mg/kg/injection, schedule: Q01DX001 (ip), vehicle: carboxymethylcellulose (CMC) 113 % of control

CC1CCC2N(C1)CC1C3(O)CC45OC6(O)C(O)CCC4(C)C6CCC5C3(O)CC(O)C1(O)C2(C)O (stereo not given)
inactive: [9] 104 % of control | dose: 150.0 mg/kg/injection, schedule: Q01DX001 (ip), vehicle: saline 105 % of control
